In ChEMBL document CHEMBL1201862, “PubChem BioAssay data set” (2004):
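All cell lines were grown in 96-well plates and treated with compound for 48 hours. At the GI50, growth is halved.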 Calls of active or inactive are those of the source. Cut-off read from the data, not from the text of the source: active = GI50 up to about 1.1 µM and inactive = higher.

How the values were obtained:
Assay in all cases: NCI tumour cell line growth inhibition, 48 h
[1] = system: HOP-62
[2] = system: LXFL 529
[3] = system: LOX IMVI
[4] = system: NCI-H226
[5] = system: EKVX
[6] = system: SF-268
[7] = system: NCI-H23
[8] = system: TK-10
[9] = system: SR
[10] = system: ACHN
[11] = system: MOLT-4
[12] = system: SNB-19
[13] = system: HCT-116
[14] = system: SNB-78
[15] = system: HL-60
[16] = system: RXF 393
[17] = system: HT-29
[18] = system: A498
[19] = system: NCI-H460
[20] = system: IGROV-1
[21] = system: KM12
[22] = system: HCT-15
[23] = system: SF-295
[24] = system: SK-MEL-28
[25] = system: OVCAR-3
[26] = system: OVCAR-8
[27] = system: SK-MEL-2
[28] = system: DLD-1
[29] = system: U-251
[30] = system: HOP-18
[31] = system: UACC-257
[32] = system: A549
[33] = system: SN12C
[34] = system: HCC 2998
[35] = system: COLO 205
[36] = system: KM-20L2
[37] = system: UO-31
[38] = system: SF-539
[39] = system: 786-0
[40] = system: RPMI-8226
[41] = system: Malme-3M
[42] = system: DMS-114
[43] = system: RXF 631
[44] = system: SW-620
[45] = system: M19-MEL
[46] = system: SNB-75
[47] = system: OVCAR-5
[48] = system: HOP-92
[49] = system: K562
[50] = system: SK-MEL-5
[51] = system: DMS-273
[52] = system: XF498
[53] = system: M14
[54] = system: UACC-62
[55] = system: CAKI-1
[56] = system: SK-OV-3
[57] = system: CCRF-CEM
[58] = system: OVCAR-4

For `NCCn1cnc2nc(NC(=O)c3ccccc3)[nH]c(=O)c21`, the GI50 [1] was > 100 µM (inactive), the GI50 [2] was > 100 µM (inactive) and the GI50 [3] was > 100 µM (inactive). The GI50 [4] was > 100 µM (inactive), the GI50 [5] was > 100 µM (inactive) and the GI50 [6] was > 100 µM (inactive). For the same molecule, the GI50 [7] was > 100 µM (inactive), the GI50 [8] was > 100 µM (inactive) and the GI50 [9] was > 100 µM (inactive). The GI50 [10] was > 100 µM (inactive), the GI50 [11] was > 100 µM (inactive) and the GI50 [12] was > 100 µM (inactive). The GI50 [13] was > 100 µM (inactive), the GI50 [14] was > 100 µM (inactive) and the GI50 [15] was > 100 µM (inactive). The GI50 [16] was > 100 µM (inactive), the GI50 [17] was > 100 µM (inactive) and the GI50 [18] was > 100 µM (inactive). For the same molecule, the GI50 [19] was > 100 µM (inactive), the GI50 [20] was > 100 µM (inactive) and the GI50 [21] was > 100 µM (inactive). For the same molecule, the GI50 [22] was > 100 µM, the GI50 [23] was > 100 µM (inactive) and the GI50 [24] was > 100 µM (inactive). For the same molecule, the GI50 [25] was > 100 µM (inactive), the GI50 [26] was > 100 µM (inactive) and the GI50 [27] was > 100 µM (inactive). The GI50 [28] was > 100 µM (inactive), the GI50 [29] was > 100 µM (inactive) and the GI50 [30] was > 100 µM (inactive). For the same molecule, the GI50 [31] was > 100 µM (inactive), the GI50 [32] was > 100 µM (inactive) and the GI50 [33] was > 100 µM (inactive). For the same molecule, the GI50 [34] was > 100 µM (inactive), the GI50 [35] was > 100 µM (inactive) and the GI50 [36] was > 100 µM (inactive). For the same molecule, the GI50 [37] was > 100 µM (inactive), the GI50 [38] was > 100 µM (inactive) and the GI50 [39] was > 100 µM (inactive). The GI50 [40] was > 100 µM (inactive), the GI50 [41] was > 100 µM (inactive) and the GI50 [42] was > 100 µM (inactive). The GI50 [43] was > 100 µM (inactive), the GI50 [44] was > 100 µM (inactive) and the GI50 [45] was > 100 µM (inactive). For the same molecule, the GI50 [46] was 45.7 µM (inactive), the GI50 [47] was > 100 µM (inactive) and the GI50 [48] was > 100 µM (inactive). For the same molecule, the GI50 [49] was > 100 µM (inactive).

With `Cc1ccc(S(=O)(=O)c2ccc(N)cc2)cc1` the GI50 [1] was > 100 µM (inactive), the GI50 [2] was > 100 µM (inactive) and the GI50 [4] was > 10 µM (inactive). The GI50 [50] was > 100 µM (inactive), the GI50 [5] was > 100 µM (inactive) and the GI50 [51] was > 100 µM (inactive). For the same molecule, the GI50 [7] was > 100 µM (inactive), the GI50 [8] was > 100 µM (inactive) and the GI50 [10] was > 100 µM (inactive). For the same molecule, the GI50 [11] was > 100 µM (inactive), the GI50 [13] was > 100 µM (inactive) and the GI50 [14] was > 100 µM (inactive). For the same molecule, the GI50 [15] was > 100 µM (inactive), the GI50 [16] was > 100 µM (inactive) and the GI50 [17] was > 100 µM (inactive). The GI50 [18] was > 100 µM (inactive), the GI50 [19] was > 100 µM (inactive) and the GI50 [52] was > 100 µM (inactive). For the same molecule, the GI50 [20] was > 100 µM (inactive), the GI50 [21] was 47.6 µM (inactive) and the GI50 [53] was > 100 µM (inactive). For the same molecule, the GI50 [22] was > 100 µM, the GI50 [23] was > 100 µM (inactive) and the GI50 [54] was > 100 µM (inactive). The GI50 [24] was > 100 µM (inactive), the GI50 [25] was > 100 µM (inactive) and the GI50 [26] was > 100 µM (inactive). For the same molecule, the GI50 [55] was 97.9 µM (inactive), the GI50 [27] was > 100 µM (inactive) and the GI50 [28] was > 100 µM (inactive). For the same molecule, the GI50 [29] was > 100 µM (inactive), the GI50 [31] was > 100 µM (inactive) and the GI50 [32] was > 100 µM (inactive). The GI50 [34] was > 100 µM (inactive), the GI50 [36] was > 100 µM (inactive) and the GI50 [37] was > 100 µM (inactive). The GI50 [38] was > 100 µM (inactive), the GI50 [39] was > 100 µM (inactive) and the GI50 [56] was > 100 µM (inactive). The GI50 [40] was > 100 µM (inactive), the GI50 [41] was > 100 µM (inactive) and the GI50 [57] was > 100 µM (inactive). The GI50 [58] was > 100 µM (inactive), the GI50 [43] was > 100 µM (inactive) and the GI50 [44] was > 100 µM (inactive). For the same molecule, the GI50 [45] was > 100 µM (inactive), the GI50 [46] was > 100 µM (inactive) and the GI50 [47] was > 100 µM (inactive). For the same molecule, the GI50 [49] was > 100 µM (inactive).
